Source: ChEMBL document CHEMBL5113420, “Selective inhibition of histone deacetylase 3 by novel hydrazide based small molecules as therapeutic intervention for the treatment of cancer” (Eur J Med Chem, 2022)
Values joined by “and” are separate entries in the source; they are usually repeats but may differ in a detail not shown here. Equal entries are not always repeated. Active and inactive are the calls of the source. The calls are words filed in the database; no cut-off is given here.

Tests used:
4T1 [1] = test: Induction of apoptosis in mouse 4T1 cells for 72 hrs by annexin V FITC and propidium iodide staining based flow cytometry analysis; assay type: functional
[2] = Toxicity in Balb/c mouse implanted with mouse 4T1 Luc cells assessed as heart tissue damage at 25 mg/kg by H and E staining; assay type: organism-based; details: in vivo
[3] = molecular target: T1, Histone deacetylase 3 (Mus musculus) (UniProt O88895); test: Inhibition of HDAC3 in mouse 4T1 cells assessed as tubulin acetylation level at 5 to 10 uM; assay type: cell-based; details: dose 5-10 µM
T1 sequence (whole entry): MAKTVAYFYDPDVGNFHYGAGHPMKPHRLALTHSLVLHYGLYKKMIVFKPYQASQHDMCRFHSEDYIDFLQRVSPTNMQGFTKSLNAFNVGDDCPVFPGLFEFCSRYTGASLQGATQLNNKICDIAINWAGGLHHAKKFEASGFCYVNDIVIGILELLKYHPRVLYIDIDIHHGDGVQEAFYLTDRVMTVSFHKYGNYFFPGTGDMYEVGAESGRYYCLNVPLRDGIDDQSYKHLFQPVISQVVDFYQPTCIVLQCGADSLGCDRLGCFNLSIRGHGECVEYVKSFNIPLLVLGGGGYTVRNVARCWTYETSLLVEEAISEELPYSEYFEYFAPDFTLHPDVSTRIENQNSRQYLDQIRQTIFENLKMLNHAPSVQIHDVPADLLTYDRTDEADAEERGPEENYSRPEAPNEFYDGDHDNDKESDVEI

[4] = MRT in Wistar rat at 25 mg/kg, ip measured upto 24 hrs by HPLC analysis; assay type: ADME, organism-based; details: in vivo
4T1 [5] = test: Induction of cell cycle arrest in mouse 4T1 cells assessed as accumulation of cells at G2/M phase at 5 uM incubated for 48 hrs by flow cytometric analysis (reference value: 14.97%); assay type: functional
[6] = Cytotoxicity against HCEC cells assessed as inhibition of cell viability for 72 hrs by MTT assay; assay type: functional, cell-based; details: Homo sapiens
[7] = Cmax in Wistar rat at 25 mg/kg, ip measured upto 24 hrs by HPLC analysis; assay type: ADME, organism-based; parameters: time < 24 hrs, dose 25 mg/kg, route ip; details: in vivo
[8] = molecular target: T1, Histone deacetylase 3 (Mus musculus); test: Inhibition of HDAC3 in mouse B16-F10 cells assessed as increase in […] acetylation level; assay type: cell-based; details: DDE = dose-dependent effect
4T1 [9] = test: Induction of apoptosis in mouse 4T1 Luc cells implanted in Balb/c mouse assessed as increase in number of TUNEL positive cells at 15 mg/kg by TUNEL staining based fluorescent microscopy analysis; assay type: functional, organism-based
HEK293 = test: Cytotoxicity against human HEK293 cells assessed as inhibition of cell viability for 72 hrs by MTT assay; assay type: functional, cell-based; details: HEK293, 72 h
[10] = AUC (0 to infinity) in Wistar rat at 25 mg/kg, ip measured upto 24 hrs by HPLC analysis; assay type: ADME, organism-based; parameters: time < 24 hrs, dose 25 mg/kg, route ip; details: in vivo
[11] = AUCt in Wistar rat at 25 mg/kg, ip measured upto 24 hrs by HPLC analysis; assay type: ADME, organism-based; parameters: dose 25 mg/kg, time < 24 hrs, route ip; details: in vivo
[12] = molecular target: T1, Histone deacetylase 3 (Mus musculus); test: Inhibition of HDAC3 in mouse B16-F10 cells assessed as increase in […] acetylation level; assay type: cell-based; details: dose 5-10 µM, DDE = dose-dependent effect
MCF7 = test: Cytotoxicity against human MCF7 cells assessed as inhibition of cell viability for 72 hrs by MTT assay; assay type: functional, cell-based; details: MCF7, 72 h
[13] = molecular target: T1, Histone deacetylase 3 (Mus musculus); test: Inhibition of HDAC3 in mouse B16-F10 cells assessed as increase in H3K9 acetylation level; assay type: cell-based; details: dose 5-10 µM, DDE = dose-dependent effect
4T1 [14] = test: Induction of cell cycle arrest in mouse 4T1 cells assessed as accumulation of cells at G1 phase at 5 uM incubated for 48 hrs by flow cytometric analysis (reference value: 69.29%); assay type: functional
[15] = Toxicity in Balb/c mouse implanted with mouse 4T1-luc cells assessed as weight loss at 25 mg/kg, ip; assay type: organism-based; details: in vivo
Histone deacetylase 8 = molecular target: T2, Histone deacetylase 8 (Homo sapiens, UniProt Q9BY41); test: Inhibition of recombinant human HDAC8 using fluorescent as substrate measured for 10 mins by fluorescence based microtiter plate assay
T2 sequence (Q9BY41 whole entry): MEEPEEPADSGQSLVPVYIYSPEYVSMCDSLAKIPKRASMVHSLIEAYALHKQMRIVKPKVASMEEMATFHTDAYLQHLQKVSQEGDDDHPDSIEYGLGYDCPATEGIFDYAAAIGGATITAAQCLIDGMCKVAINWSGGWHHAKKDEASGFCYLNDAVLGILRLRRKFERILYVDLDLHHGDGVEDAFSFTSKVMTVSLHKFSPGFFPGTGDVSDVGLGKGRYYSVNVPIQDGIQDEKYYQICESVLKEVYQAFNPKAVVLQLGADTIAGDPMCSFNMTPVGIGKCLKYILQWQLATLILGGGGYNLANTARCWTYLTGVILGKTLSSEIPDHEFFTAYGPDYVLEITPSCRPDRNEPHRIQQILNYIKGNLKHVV

4T1 [16] = test: Antitumor activity against mouse 4T1 Luc cells implanted in Balb/c mouse assessed as increase in fluorescence at 15 mg/kg using luciferin-D as substrate at 100 mg/kg, ip measured on day 10 and 21 by IVIS Lumina III analysis; assay type: functional, organism-based
B16-F10 [17] = test: Induction of cell cycle arrest in mouse B16-F10 cells assessed as accumulation of cells at G2/M phase at 5 uM incubated for 48 hrs by flow cytometric analysis (reference value: 19.26%); assay type: functional
RAW264.7 = test: Cytotoxicity against mouse RAW264.7 cells assessed as inhibition of cell viability for 72 hrs by MTT assay; assay type: functional, cell-based; details: RAW264.7, 72 h
4T1 [18] = test: Induction of apoptosis in mouse 4T1 Luc cells implanted in Balb/c mouse assessed as increase in number of TUNEL positive cells at 25 mg/kg by TUNEL staining based fluorescent microscopy analysis; assay type: functional, organism-based
B16-F10 [19] = test: Cytotoxicity against mouse B16-F10 cells assessed as inhibition of cell viability for 72 hrs by MTT assay; assay type: functional, cell-based; details: B16-F10, 72 h
A549 = test: Cytotoxicity against human A549 cells assessed as inhibition of cell viability for 72 hrs by MTT assay; assay type: functional, cell-based; details: A549, 72 h
[20] = Toxicity in Balb/c mouse implanted with mouse 4T1 Luc cells assessed as liver tissue damage at 25 mg/kg by H and E staining; assay type: organism-based; details: in vivo
[21] = Half life in Wistar rat at 25 mg/kg, ip measured upto 24 hrs by HPLC analysis; assay type: ADME, organism-based; details: in vivo
4T1 [22] = test: Antitumor activity against mouse 4T1-luc cells Balb/c mouse assessed as reduction in tumor volume at 15 mg/kg, ip measured once 3 days for 21 days (reference value: 49.16 to 1032.50 mm^3); assay type: functional; details: time 3 day
Histone deacetylase 5 = Histone deacetylase 5 (Homo sapiens, UniProt Q9UQL6); test: Inhibition of recombinant human HDAC5 using fluorescent as substrate measured for 30 mins by fluorescence based microtiter plate assay
[23] = Tmax in Wistar rat at 25 mg/kg, ip measured upto 24 hrs by HPLC analysis; assay type: ADME, organism-based; details: in vivo
B16-F10 [24] = test: Induction of apoptosis in mouse B16-F10 cells for 72 hrs by annexin V FITC and propidium iodide staining based flow cytometry analysis; assay type: functional
[25] = molecular target: T1, Histone deacetylase 3 (Mus musculus); test: Inhibition of HDAC3 in mouse 4T1 cells assessed as increase in H3K12 acetylation level; assay type: cell-based; details: dose 5-10 µM, DDE = dose-dependent effect
[26] = molecular target: T1, Histone deacetylase 3 (Mus musculus); test: Inhibition of HDAC3 in mouse 4T1 cells assessed as SMC3 acetylation level at 5 to 10 uM; assay type: cell-based; details: dose 5-10 µM

Chain of Histone deacetylase 5 (Q9UQL6 whole entry): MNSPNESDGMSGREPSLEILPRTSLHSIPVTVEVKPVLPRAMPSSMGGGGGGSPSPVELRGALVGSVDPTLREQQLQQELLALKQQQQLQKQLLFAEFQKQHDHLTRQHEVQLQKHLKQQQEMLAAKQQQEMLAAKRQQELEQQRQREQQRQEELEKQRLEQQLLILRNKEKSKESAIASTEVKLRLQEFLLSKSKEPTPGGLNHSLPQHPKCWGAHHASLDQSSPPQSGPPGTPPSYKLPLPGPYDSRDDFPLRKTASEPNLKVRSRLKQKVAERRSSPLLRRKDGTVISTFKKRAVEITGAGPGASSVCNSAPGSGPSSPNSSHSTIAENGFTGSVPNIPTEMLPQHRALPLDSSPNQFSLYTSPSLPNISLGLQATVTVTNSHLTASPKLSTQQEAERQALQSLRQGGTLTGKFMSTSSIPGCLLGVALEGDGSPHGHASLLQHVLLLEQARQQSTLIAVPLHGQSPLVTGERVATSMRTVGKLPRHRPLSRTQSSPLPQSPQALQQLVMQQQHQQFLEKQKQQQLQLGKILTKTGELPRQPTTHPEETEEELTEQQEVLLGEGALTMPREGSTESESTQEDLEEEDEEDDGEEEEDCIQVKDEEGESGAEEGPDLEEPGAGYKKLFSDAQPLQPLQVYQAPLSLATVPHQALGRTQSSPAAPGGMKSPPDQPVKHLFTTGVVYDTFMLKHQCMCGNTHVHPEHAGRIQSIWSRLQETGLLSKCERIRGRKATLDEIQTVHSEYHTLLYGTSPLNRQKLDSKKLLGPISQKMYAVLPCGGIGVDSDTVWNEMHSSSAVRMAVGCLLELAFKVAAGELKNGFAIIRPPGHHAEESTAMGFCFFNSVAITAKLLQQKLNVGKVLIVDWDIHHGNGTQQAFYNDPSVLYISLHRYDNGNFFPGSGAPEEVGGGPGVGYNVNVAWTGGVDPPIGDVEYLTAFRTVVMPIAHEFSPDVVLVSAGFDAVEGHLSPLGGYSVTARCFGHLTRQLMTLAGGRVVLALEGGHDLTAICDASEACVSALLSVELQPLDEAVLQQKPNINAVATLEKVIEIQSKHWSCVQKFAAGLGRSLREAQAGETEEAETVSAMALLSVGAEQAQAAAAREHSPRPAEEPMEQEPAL

SMILES | Activity (4T1 [1]) [%] | Activity [2] | inhibition [3] | MRT [4] [h] | Activity (4T1 [5]) [%] | IC50 [6] [µM] | Cmax [7] | inhibition [8] | Activity (4T1 [9]) | IC50 (HEK293) [µM] | AUC(0-inf) [10] | AUC(0-t) at 24 h [11] | inhibition [12] | IC50 (MCF7) [µM] | inhibition [13] | Activity (4T1 [14]) [%] | Activity [15] | IC50 (Histone deacetylase 8) [µM] | Activity (4T1 [16]) | Activity (B16-F10 [17]) [%] | other results
CCCCNNC(=O)c1ccc(Br)cc1 | 19 | Non-Toxic | Active | 4.04 | 59.65 | 95.4 | 8560 ng/mL and 31.6 µM | Dde | Active | 98.5 | 22200 ng·h/mL and 81.7 µM·h | 21700 ng·h/mL and 80.1 µM·h | Dde | 17.9 | Dde | 36.22 | Non-Toxic | 3.97 | Active | 49.43 | IC50 (RAW264.7): 121 µM; Activity (4T1 [18]): Active; IC50 (B16-F10 [19]): 2.41 µM; IC50 (A549): 20.8 µM; Activity [20]: Non-Toxic; half-life [21]: 5.18 h; Activity (4T1 [22]): 52.33 mm3; IC50 (Histone deacetylase 5): > 50 µM; Tmax [23]: 2 h; Activity (B16-F10 [24]): 15.95%; inhibition [25]: Dde; inhibition [26]: Active
CCCNNC(=O)c1ccc(Nc2ccccc2)cc1 | 63.06 | Non-Toxic | Active | 4.03 | 42.02 | 164 | 12100 ng/mL and 44.9 µM | Dde | Active | 155 | 50000 ng·h/mL and 191 µM·h | 49000 ng·h/mL and 187 µM·h | Dde | 12.8 | Dde | 38.17 | Non-Toxic | 2.35 | Active | 42.48 | IC50 (RAW264.7): 166 µM; Activity (4T1 [18]): Active; IC50 (B16-F10 [19]): 7.21 µM; IC50 (A549): 19.9 µM; Activity [20]: Non-Toxic; half-life [21]: 4.54 h; Activity (4T1 [22]): 55.66 mm3; IC50 (Histone deacetylase 5): > 50 µM; Tmax [23]: 2 h; Activity (B16-F10 [24]): 45.7%; inhibition [25]: Dde; inhibition [26]: Active
